{"source": "paper PMC9814429", "about": "“First-in-human phase I dose-escalation and dose-expansion trial of the selective MEK inhibitor HL-085 in patients with advanced melanoma harboring NRAS mutations” (BMC Medicine, 2023)", "origin": "cited, not measured here", "test_system": "NRAS mutant melanoma", "set-up": "method as in PMID 28284557", "details": "phase 3, NRAS mutant melanoma", "data": [{"smiles": "Cn1cnc2c(F)c(Nc3ccc(Br)cc3F)c(C(=O)NOCCO)cc21", "note": "[binimetinib]", "values": [{"measurement": "DCR", "result": 58, "unit": "%"}, {"measurement": "ORR", "result": 15, "unit": "%"}, {"measurement": "PFS", "result": 2.8, "unit": "months"}]}]}
